Source: patent US7575640B2, “Method for producing sugar and sugar-containing products from sugar-containing plant raw materials” (Zuckerforschung Tulln Gesellschaft m.b.H., priority 2003, dated 2009)
Converted amounts (≈) assume the structure as drawn. Counter-ions that a name gives are not always drawn. Like-named read-outs stand apart in the source and are kept apart here.

Experiments:
thermophilic bacteria [1] = assay: determination of MIC by stepwise addition until stabilization of the pH, 65° C.; type: cell-based, thermophilic bacteria (mixed culture)
Procedure: To illustrate the antimicrobial activity within the scope of sugar production, examples are carried out with […] compounds by way of example. […] Upon the growth of thermophilic bacteria, the pH drops progressively. This indicates a microorganism-caused acid formation. […] The fatty acid compounds used in this Example are myristic acid and lauric acid, and their potassium salts, respectively. In this case, the acids were used both individually and in a 1:1 mixture, the salts were exclusively used in a 1:1 mixture.

[2] = tested on: thermophilic microorganisms; assay: germ-inhibiting activity (acid formation) under sugar production conditions, general statements; type: cell-based
Procedure: If at 35-45° C., i.e. at those temperatures, at which it is usually worked in microbiology, a culture medium is inoculated with non-sterile crude juice from a sugar beet extraction, in most cases it is difficult to stop, by the addition of fatty acids, an acid formation recognizable by a drop in the pH (particularly in mixed cultures in which insensitive microorganism can prevail). On the other hand, the acid formation at 55° C. and 65° C. is blocked by fatty acids, depending on the chain lengths, at concentrations of from 4 to 40 mg/l over a period of time of from 1 to 10 hours. While a maximum of C11-C12 is indicated for the effects observed at normal temperature (Ullmann 1975), for thermophilic microorganisms at the higher temperature the effective maximum lies at C14 (myristic acid)
(§1) If a sugar-containing substrate, e.g. a sugar-containing liquid culture medium, as it is common in microbiology, is either non-sterilized or incubated after inoculation with a bacterial strain, an acid formation will occur which is the easiest to recognize by a drop in the pH. The same phenomenon will occur when incubating normal sugar-containing plant juices, e.g. beet juice. In an industrial process, e.g. in the recovery of sugar juice from sugar beets, a drop in the pH by degradation of sugar means a loss of sugar and a need for an alkalizing agent. Moreover, a drop in the pH with an increase in the germ content in the substrate often is associated with an unpleasant gas and nitrite formation. This arrangement also forms an efficient system for determining the germ-inhibiting activity of substances within the scope of the sugar production process.
If during such an acid formation caused by thermophilic microorganisms at higher temperatures, for instance a solution of fatty acid compounds according to the invention is added, the acid formation and the drop in the pH associated therewith will stop starting from a certain concentration of 10 ppm. Thus, the disadvantages associated with the acid formation can be avoided by the addition of myristic acid, e.g., to a sugar-containing substrate. […]

thermophilic bacteria [3] = assay: pH drop (acid formation) in liquid culture medium inoculated with crude juice from sugar beet extraction, 65° C.; type: cell-based, thermophilic bacteria (mixed culture); conditions: for behavior in such an example (effect on pH drop): as Example 2, compared with palmitic acid (basic effect lasting only a very short period); for concentration at which the pH drop is stopped / effect reached: additions of 10 mg/l
Procedure: as §1, with “formation.” for “formation. This arrangement also forms an efficient system for determining the germ-inhibiting activity of substances within the scope of the sugar production process.”
A liquid culture medium, as commonly used in microbiology and consisting of 10 g of Bacto-peptone, 5 g of meat extract, 5 g of yeast extract, 1 g of glucose, 1 g of K2HPO4, 0.1 g of MgSO4*7H2O and 0.01 g of FeSO4*7H2O per liter of distilled water, is sterilized in conventional manner for 20 min at 120° C. and inoculated, in a vessel kept at a temperature of 65° C., with 20 ml of crude juice from a large-scale sugar beet extraction, wherein the pH is registered on a recorder. Upon the growth of thermophilic bacteria, the pH drops progressively. This indicates a microorganism-caused acid formation.
A mixed culture according to Example 1 is prepared.

[4] = dissolved in ethanol, 10 mg/l steps, maximum 150 mg/l, 65° C., read-out: Min. Inhibitory Conc. (MIC)
[5] = Time 4.50 h, 3×10 mg/l added between pH 6.74 and 6.49, 65° C.
[6] = Time 4.75 h, total 30 mg/l, 65° C.
[7] = Time 5 h, total 30 mg/l, 65° C.
[8] = Time 6 h, total 30 mg/l, 65° C.
[9] = Time 7 h, total 30 mg/l, 65° C.
[10] = Time 8 h, total 30 mg/l, 65° C.
[11] = Time 9 h, total 30 mg/l, 65° C.
[12] = Time 10 h, total 30 mg/l, 65° C.
[13] = Time 6 h, 10 mg/l as potassium salt added at pH 6.46 (5 h), 65° C.
[14] = Time 7 h, 10 mg/l as potassium salt added at pH 6.46 (5 h), 65° C.
[15] = Time 8 h, 10 mg/l as potassium salt added at pH 6.46 (5 h), 65° C.
[16] = Time 9 h, 10 mg/l as potassium salt added at pH 6.46 (5 h), 65° C.
[17] = Time 11 h, 10 mg/l as potassium salt added at pH 6.46 (5 h), 65° C.
[18] = Time 13 h, 10 mg/l as potassium salt added at pH 6.46 (5 h), 65° C.
[19] = Time 15 h, 10 mg/l as potassium salt added at pH 6.46 (5 h), 65° C.
[20] = Time 17 h, 10 mg/l as potassium salt added at pH 6.46 (5 h), 65° C.
[21] = Time 6.00 h, 10 mg/l added at pH 6.52 (5.10 h), 65° C.
[22] = Time 6.50 h, 10 mg/l added at pH 6.52 (5.10 h), 65° C.
[23] = Time 7 h, 10 mg/l added at pH 6.52 (5.10 h), 65° C.
[24] = Time 8 h, 10 mg/l at pH 6.52 and 4×10 mg/l between pH 6.49 and 6.36, 65° C.
[25] = Time 9 h, total 50 mg/l, 65° C.

For `CCCCCCCCCCCCCC(=O)OCC` [Ethyl-Myristate, reference compound], the MIC (thermophilic bacteria [1]; [4]) was over 150 µg/mL.
`CCCCCCCCCCCCCCO` [Myristyl Alcohol, 1-tetradecanol] gave an MIC (thermophilic bacteria [1]; [4]) of 10 µg/mL (≈ 46.6 µM) and an effective concentration [2] of at most 10 ppm.
In the case of `CCCCCCCCCCCCCC(=O)OCCC` [Propyl-Myristate, reference compound], the MIC (thermophilic bacteria [1]; [4]) is reported as over 150 µg/mL.
With `CCO` [alcohol] the “amount that impairs such a culture” value (thermophilic bacteria [3]; mixed culture, 65° C.) was 40-60 ml alcohol per liter culture liquid.
For `CCCCCCCCCCCCCCCCCCCCCC(=O)O` [behenic acid, reference compound], the “behavior in such an example (effect on pH drop)” value (“behavior in such an example” for short) (thermophilic bacteria [3]) was “does not exhibit any effect”.
In the case of `CCCCCCCCCCCC(=O)O` [lauric acid], the “effect on pH drop” value (thermophilic bacteria [3]; 20 mg/l (two additions), mixed culture, 65° C.) is reported as “does not have any effect”, the pH (thermophilic bacteria [3]; [5]) is reported as 6.49 and the ΔpH/h (thermophilic bacteria [3]; [5]) is reported as 1.00. For the same molecule, the pH (thermophilic bacteria [3]; [6]) was 6.49, the ΔpH/h (thermophilic bacteria [3]; [6]) was 0.00 and the pH (thermophilic bacteria [3]; [7]) was 6.49. It also gave a ΔpH/h (thermophilic bacteria [3]; [7]) of 0.00, a pH (thermophilic bacteria [3]; [8]) of 6.50 and a ΔpH/h (thermophilic bacteria [3]; [8]) of −0.01. For the same molecule, the pH (thermophilic bacteria [3]; [9]) was 6.51, the ΔpH/h (thermophilic bacteria [3]; [9]) was −0.01 and the pH (thermophilic bacteria [3]; [10]) was 6.52. It also gave a ΔpH/h (thermophilic bacteria [3]; [10]) of −0.01, a pH (thermophilic bacteria [3]; [11]) of 6.52 and a ΔpH/h (thermophilic bacteria [3]; [11]) of 0.00. For the same molecule, the pH (thermophilic bacteria [3]; [12]) was 6.53, the ΔpH/h (thermophilic bacteria [3]; [12]) was −0.01 and the “concentration at which the pH drop is stopped / effect reached” value (thermophilic bacteria [3]; mixed culture, 65° C.) was 30 mg/l. It also gave an MIC (thermophilic bacteria [1]; dissolved in ethanol, steps of 2 mg/l, read-out: Min. Inhibitory Conc. (MIC)) of 18 µg/mL (≈ 89.9 µM) and an MIC (thermophilic bacteria [1]; text summary of Example 9, read-out: MIC (concentration successfully used)) of 18000 µg/mL (≈ 89900 µM).
In the case of `CCCCCCCCCCCCCC(=O)OC` [methyl myristate], the inhibitory concentration [2] is reported as “approximately 100 mg/ml”.
For `CCCCCCCCCCCCCC(=O)O` [myristic acid as potassium salt, myristic acid], the “duration of effectiveness (pH drop stopped)” value (thermophilic bacteria [3]; 10 mg/l, mixed culture, 65° C.) was “at least 12 h”, the “effect on pH drop” value (thermophilic bacteria [3]; 10 mg/l, mixed culture, 65° C.) was “suddenly and lastingly be stopped” and the pH (thermophilic bacteria [3]; [13]) was 6.46. The ΔpH/h (thermophilic bacteria [3]; [13]) was 0.00, the pH (thermophilic bacteria [3]; [14]) was 6.46 and the ΔpH/h (thermophilic bacteria [3]; [14]) was 0.00. It also gave a pH (thermophilic bacteria [3]; [15]) of 6.47, a ΔpH/h (thermophilic bacteria [3]; [15]) of −0.01 and a pH (thermophilic bacteria [3]; [16]) of 6.46. The ΔpH/h (thermophilic bacteria [3]; [16]) was 0.01, the pH (thermophilic bacteria [3]; [17]) was 6.46 and the ΔpH/h (thermophilic bacteria [3]; [17]) was 0.00. It also gave a pH (thermophilic bacteria [3]; [18]) of 6.46, a ΔpH/h (thermophilic bacteria [3]; [18]) of 0.00 and a pH (thermophilic bacteria [3]; [19]) of 6.45. For the same molecule, the ΔpH/h (thermophilic bacteria [3]; [19]) was 0.00, the pH (thermophilic bacteria [3]; [20]) was 6.45 and the ΔpH/h (thermophilic bacteria [3]; [20]) was 0.00.
With `CCCCCCCC/C=C\CCCCCCCC(=O)O` [oleic acid] the “behavior in such an example” value (thermophilic bacteria [3]) was “Quite similar”.
With `CCCCCCCCCCCCCCCC(=O)O` [palmitic acid] the “duration of effectiveness (pH drop stopped)” value (thermophilic bacteria [3]; 10 mg/l, mixed culture, 65° C.) was 1.5-2 h, the “effect on pH drop” value (thermophilic bacteria [3]; 10 mg/l, mixed culture, 65° C.) was “immediately completely stopped” and the pH (thermophilic bacteria [3]; [21]) was 6.53. The ΔpH/h (thermophilic bacteria [3]; [21]) was −0.01, the pH (thermophilic bacteria [3]; [22]) was 6.53 and the ΔpH/h (thermophilic bacteria [3]; [22]) was 0.00. The pH (thermophilic bacteria [3]; [23]) was 6.49, the ΔpH/h (thermophilic bacteria [3]; [23]) was 0.08 and the pH (thermophilic bacteria [3]; [24]) was 6.36. The ΔpH/h (thermophilic bacteria [3]; [24]) was 0.13, the pH (thermophilic bacteria [3]; [25]) was 6.29 and the ΔpH/h (thermophilic bacteria [3]; [25]) was 0.07. The pH drop (thermophilic bacteria [3]; renewed addition up to total 50 mg/l, retarded from 0.13) was 0.07 pH units per hour.
For `C/C=C/C=C/C(=O)O` [sorbic acid, reference compound], the “concentration at which the pH drop is stopped / effect reached” value (thermophilic bacteria [3]; mixed culture, 65° C.) was over 150 mg/l.
For `CCCCCCCCCCCCCCCCCC(=O)O` [stearic acid], the “behavior in such an example” value (thermophilic bacteria [3]) was “Quite similar”.
In the case of `CCCCCCCCCCCCCCCCCCO` [stearyl alcohol], the effective concentration [2] is reported as “markedly higher concentrations have to be employed”.
For `CCCCCCCCCCC(=O)O` [undecanoic acid], the “concentration at which the pH drop is stopped / effect reached” value (thermophilic bacteria [3]; mixed culture, 65° C.) was 40 mg/l.
